Measurements reported in patent US20090030024A1, “THIAZOLES AS FUNGICIDES” (priority 2005, published 2009).

Test: logP determination by retention times (calibration with alkan-2-ones)
Details: not given

| Structure (SMILES) | chromatographic logP |
| --- | --- |
| Cc1nc(C)c(-c2ccnc(Nc3ccc(F)c(C)c3)n2)s1 [Example 185, 4-(2,4-dimethyl-1,3-thiazol-5-yl)-N-(4-fluoro-3-methylphenyl)pyrimidine-2-amine] | 3.07 |
| Cc1nc(C2CCCCC2)sc1-c1ccnc(Nc2ccccc2)n1 [Example 219, 4-(2-cyclohexyl-4-methyl-1,3-thiazol-5-yl)-N-phenylpyrimidine-2-amine] | 4.65 |
| CCc1nc(C)c(-c2ccnc(Nc3ccc(C(=O)O)cc3)n2)s1 [Example 325, 4-{[4-(2-ethyl-4-methyl-1,3-thiazol-5-yl)pyrimidin-2-yl]amino}benzoic acid] | 2.16 |
| CSc1nc(C)c(-c2ccnc(Nc3cccc(C(C)=O)c3)n2)s1 [Example 28, 1-[3-({4-[4-methyl-2-(methylthio)-1,3-thiazol-5-yl]pyrimidin-2-yl}amino)phenyl]ethanone] | 2.99 |
| COc1cc(Nc2nccc(-c3sc(NCC4CCCO4)nc3C)n2)cc(OC)c1OC (centres unmarked) [Example 354, 4-{4-methyl-2-[(tetrahydrofuran-2-ylmethyl)amino]-1,3-thiazol-5-yl}-N-(3,4,5-trimethoxyphenyl)pyrimidine-2-amine] | 1.8 |
| COCC(C)Nc1nc(C)c(-c2ccnc(Nc3cc(OC)c(OC)c(OC)c3)n2)s1 (centres unmarked) [Example 332, 4-{2-[(2-methoxy-1-methylethyl)amino]-4-methyl-1,3-thiazol-5-yl}-N-(3,4,5-trimethoxyphenyl)pyrimidine-2-amine] | 1.85 |
| Cc1nc(N)sc1-c1ccnc(Nc2cccc(Cl)c2)n1 [Example 204, 4-(2-amino-4-methyl-1,3-thiazol-5-yl)-N-(3-chlorophenyl)pyrimidine-2-amine] | 1.78 |
| COCc1nc(C)c(-c2ccnc(Nc3ccc(N(C)C)c(Cl)c3)n2)s1 [Example 65, 2-chloro-N4-{4-[2-(methoxymethyl)-4-methyl-1,3-thiazol-5-yl]pyrimidin-2-yl}-N1,N1-dimethylbenzene-1,4-diamine] | 2.04 |
| COc1ccc(Nc2nccc(-c3sc(SC)nc3C)n2)cc1OC [Example 405, N-(3,4-dimethoxyphenyl)-4-[4-methyl-2-(methylthio)-1,3-thiazol-5-yl]pyrimidine-2-amine] | 2.78 |
| COCc1nc(C)c(-c2ccnc(Nc3cccc(C(C)=O)c3)n2)s1 [Example 24, 1-[3-({4-[2-(methoxymethyl)-4-methyl-1,3-thiazol-5-yl]pyrimidin-2-yl}amino)phenyl]ethanone] | 2.38 |
| Cc1nc(C2CC2)sc1-c1ccnc(Nc2cccc(O)c2)n1 [Example 148, 3-{[4-(2-cyclopropyl-4-methyl-1,3-thiazol-5-yl)pyrimidin-2-yl]amino}phenol] | 2.24 |

Same assay, conditions: * HPLC reversed-phase C18, 40° C., mobile phase 0.1% aqueous formic acid and acetonitrile, linear gradient 10% to 95% acetonitrile

| Structure (SMILES) | logP |
| --- | --- |
| CNc1nc(C)c(-c2ccnc(Nc3cccc(CNC(=O)OC(C)(C)C)c3)n2)s1 [Example 658, tert-butyl-[3-({4-[4-methyl-2-(methylamine)-1,3-thiazol-5-yl]pyrimidin-2-yl}amino)benzyl]carbamate] | 1.99* |
| CN(C)c1nc(C(F)(F)F)c(-c2ccnc(Nc3ccc(N(C)C)c(Cl)c3)n2)s1 [Example 701, 2-chloro-N4-{4-[2-(dimethylamine)-4-(trifluoromethyl)-1,3-thiazol-5-yl]pyrimidin-2-yl}-N1,N1-dimethylbenzene-1,4-diamine] | 3.46* |

Same assay, conditions: logP, * HPLC reversed-phase C18, 40° C., mobile phase 0.1% aqueous formic acid and acetonitrile, linear gradient 10% to 95% acetonitrile

| Structure (SMILES) | chromatographic logP |
| --- | --- |
| CC(=O)c1cccc(Nc2nccc(-c3sc(-c4cccnc4)nc3C)n2)c1 [Example 734, 1-(3-{[4-(4-methyl-2-pyridin-3-yl-1,3-thiazol-5-yl)pyrimidin-2-yl]amino}phenyl)ethanone] | 2.56 |
| Cc1nc(C(F)(F)F)c(-c2ccnc(Nc3cccc(Cl)c3)n2)s1 [Example 433, N-(3-chlorophenyl)-4-[2-methyl-4-(trifluoromethyl)-1,3-thiazol-5-yl]pyrimidine-2-amine] | 4.03 |
| CCc1nc(C)c(-c2ccnc(Nc3cccnc3)n2)s1 [Example 714, 4-(2-ethyl-4-methyl-1,3-thiazol-5-yl)-N-pyridin-3-ylpyrimidine-2-amine] | 1.35 |
| CC(=O)Nc1ccc(Nc2nccc(-c3sc(NCC4CCCO4)nc3C)n2)cc1 (centres unmarked) [Example 580, N-{4-[(4-{4-methyl-2-[(tetrahydrofuran-2-ylmethyl)amino]-1,3-thiazol-5-yl}pyrimidin-2-yl)amino]phenyl}acetamide] | 1.39 |
| COCc1nc(C)c(-c2ccnc(Nc3ccc(NC(C)=O)cc3)n2)s1 [Example 544, N-[4-({4-[2-(methoxymethyl)-4-methyl-1,3-thiazol-5-yl]pyrimidin-2-yl}amino)phenyl]acetamide] | 1.8 |
| COCCNc1nc(C)c(-c2ccnc(Nc3cccc(NC(C)=O)c3)n2)s1 [Example 682, N-{3-[(4-{2-[(2-methoxyethyl)amino]-4-methyl-1,3-thiazol-5-yl}pyrimidin-2-yl)amino]phenyl}acetamide] | 1.36 |
| Cc1nc(C(F)(F)F)c(-c2ccnc(Nc3ccc(O)cc3)n2)s1 [Example 696, 4-({4-[2-methyl-4-(trifluoromethyl)-1,3-thiazol-5-yl]pyrimidin-2-yl}amino)phenol] | 2.39 |
| CCc1nc(C)c(-c2ccnc(N(C(C)=O)c3ccccc3)n2)s1 [Example 668, N-[4-(2-ethyl-4-methyl-1,3-thiazol-5-yl)pyrimidin-2-yl]-N-phenylacetamide] | 2.33 |
| CCOC(=O)Nc1ccc(Nc2nccc(-c3sc(C(C)C)nc3C)n2)cc1 [Example 796, ethyl-(4-{[4-(2-isopropyl-4-methyl-1,3-thiazol-5-yl)pyrimidin-2-yl]amino}phenyl)carbamate] | 2.18 |
| COCC(C)Nc1nc(C)c(-c2ccnc(Nc3ccc(N)cc3)n2)s1 (centres unmarked) [Example 737, N-(4-{2-[(2-methoxy-1-methylethyl)amino]-4-methyl-1,3-thiazol-5-yl}pyrimidin-2-yl)benzene-1,4-diamine] | 1.68 |
| COCc1nc(C)c(-c2ccnc(Nc3ccc4c(c3)OCO4)n2)s1 [Example 620, N-1,3-benzodioxol-5-yl-4-[2-(methoxymethyl)-4-methyl-1,3-thiazol-5-yl]pyrimidine-2-amine] | 2.47 |
| COCCNc1nc(C)c(-c2ccnc(Nc3ccc4c(c3)OCCO4)n2)s1 [Example 803, N-(2,3-dihydro-1,4-benzodioxin-6-yl)-4-{2-[(2-methoxyethyl)amino]-4-methyl-1,3-thiazol-5-yl}pyrimidine-2-amine] | 1.63 |
| COc1cc(Nc2nccc(-c3sc(NCC4CCCO4)nc3C)n2)cc(OC)c1 (centres unmarked) [Example 719, N-(3,5-dimethoxyphenyl)-4-{4-methyl-2-[(tetrahydrofuran-2-ylmethyl)amino]-1,3-thiazol-5-yl}pyrimidine-2-amine] | 2.02 |
| CCCC(=O)c1ccc(Nc2nccc(-c3sc(CC)nc3C)n2)cc1 [Example 733, 1-(4-{[4-(2-ethyl-4-methyl-1,3-thiazol-5-yl)pyrimidin-2-yl]amino}phenyl)butan-1-one] | 3.5 |
| COCCNc1nc(C)c(-c2ccnc(Nc3cccc(OC)c3)n2)s1 [Example 681, 4-{2-[(2-methoxyethyl)amino]-4-methyl-1,3-thiazol-5-yl}-N-(3-methoxyphenyl)pyrimidine-2-amine] | 1.86 |
| COCCNc1nc(C)c(-c2ccnc(Nc3cccc(C(C)=O)c3)n2)s1 [Example 689, 1-{3-[(4-{2-[(2-methoxyethyl)amino]-4-methyl-1,3-thiazol-5-yl}pyrimidin-2-yl)amino]phenyl}ethanone] | 1.69 |
| COCC(C)Nc1nc(C)c(-c2ccnc(Nc3cccc(N4CCCC4=O)c3)n2)s1 (centres unmarked) [Example 772, 1-{3-[(4-{2-[(2-methoxy-1-methylethyl)amino]-4-methyl-1,3-thiazol-5-yl}pyrimidin-2-yl)amino]phenyl}pyrrolidin-2-one] | 1.68 |
| CCc1nc(C)c(-c2ccnc(Nc3cncc(C)c3)n2)s1 [Example 747, 4-(2-ethyl-4-methyl-1,3-thiazol-5-yl)-N-(5-methylpyridin-3-yl)pyrimidine-2-amine] | 1.41 |
| CC(=O)Nc1ccc(Nc2nccc(-c3sc(C4CC4)nc3C)n2)cc1 [Example 459, N-(4-{[4-(2-cyclopropyl-4-methyl-1,3-thiazol-5-yl)pyrimidin-2-yl]amino}phenyl)acetamide] | 2 |
| Cc1nc(C2CC2)sc1-c1ccnc(Nc2cccc(N(C)C)c2)n1 [Example 554, N′-[4-(2-cyclopropyl-4-methyl-1,3-thiazol-5-yl)pyrimidin-2-yl]-N,N-dimethylbenzene-1,3-diamine] | 2.19 |

Same assay, conditions: logP, ** HPLC reversed-phase C18, 43° C., mobile phase 0.1% aqueous phosphoric acid and acetonitrile, linear gradient 10% to 95% acetonitrile

| Structure (SMILES) | chromatographic logP |
| --- | --- |
| Cc1nc(C)c(-c2ccnc(Nc3cccc(Cl)c3)n2)s1 [Example 421, N-(3-chlorophenyl)-4-(2,4-dimethyl-1,3-thiazol-5-yl)pyrimidine-2-amine] | 3.11 |

Same assay, conditions: logP, values marked *: HPLC on reversed-phase C 18, 40° C., mobile phase 0.1% aqueous formic acid and acetonitrile, linear gradient 10% to 95% acetonitrile

| Structure (SMILES) | chromatographic logP |
| --- | --- |
| COc1cc(Nc2ncc(Br)c(-c3sc(C)nc3C)n2)cc(OC)c1OC [Example 906, 5-bromo-4-(2,4-dimethyl-1,3-thiazol-5-yl)-N-(3,4,5-trimethoxyphenyl)pyrimidine-2-amine] | 2.85 |
| Cc1nc(C)c(-c2nc(Nc3ccccc3)ncc2Cl)s1 [Example 873, 5-chloro-4-(2,4-dimethyl-1,3-thiazol-5-yl)-N-phenylpyrimidine-2-amine] | 3.26 |
| Cc1nc(C(C)C)sc1-c1ccnc(Nc2cccnc2)n1 [Example 919, 4-(2-isopropyl-4-methyl-1,3-thiazol-5-yl)-N-pyridin-3-ylpyrimidine-2-amine] | 1.51 |

Same assay, conditions: values marked *: HPLC on reversed-phase C 18, 40° C., mobile phase 0.1% aqueous formic acid and acetonitrile, linear gradient 10% to 95% acetonitrile

| Structure (SMILES) | logP |
| --- | --- |
| CC(=O)c1ccc(Nc2nccc(-c3sc(N(C)C)nc3C)n2)cc1 [Example 867, 1-[4-({4-[2-(dimethylamine)-4-methyl-1,3-thiazol-5-yl]pyrimidin-2-yl}amino)phenyl]ethanone] | 1.9* |
